Measured values published in patent US10457641B2, “Certain chemical entities, compositions, and methods” (NEUPHARMA, INC., priority 2012, dated 2019).

Key:
BRAF V600E = biological target: T1, BRAF V600E (Homo sapiens, UniProt P15056, V600E); experiment: Z'-LYTE kinase inhibition assay, BRAF V600E; format: biochemical; conditions: 1 μM compound; Z'-LYTE method
T1 construct: purchased Invitrogen
Method: (§1) Inhibitory activities of compounds against BRAF or BRAF V600E were measured by Invitrogen using Z′-LYTE® Method as briefly described in the following.
(§2) 4× Test compounds are dissolved in 1% DMSO. […] ATP solutions are diluted to a 4×ATP working concentration in Kinase Buffer (50 mM HEPES pH 7.5, 0.01% BRIJ-35, 10 mM MgCl2, 1 mM EGTA).
(§3) Reaction starts by 30-second shaking of mixture consisting of 2.5 μL 4× test compound, 2.5 μL 2× kinase reaction mixture and 2.5 μL 4×ATP Solution on Bar-coded Corning, low volume NBS, black 384-well plate (Corning Cat. #3676). Then the mixture is incubated for 60-minute at room temperature for the kinase reaction, followed by addition of 5 μL of a 1:1024 dilution of development reagent A and 30-second plate shake. The mixture is then incubated for another 60-minute at room temperature for development reaction. Finally fluorescence is read by plate reader.

[1] = system: Colo-205 (human colon carcinoma cell); experiment: Inhibition of cancer cell growth, MTS assay, Colo-205; format: cell-based; conditions: 72 h treatment
Method: (§4) A375 (human melanoma cell, BRAF V600E Mutant), A549 (adenocarcinomic human alveolar basal epithelial cell) and Colo-205 (human colon carcinoma cell) were purchased from ATCC (American Type Culture Collection, Manassas, Va.). All cell lines were maintained in RPMI 1640 (Hyclone) or DMEM (Hyclone) supplemented with 10% fetal bovine serum (FBS, Hyclone), glutamine (2 mM, Hyclone), and antibiotics (penicillin 100 U/mL and streptomycin 50 μg/mL) at 37° C. in a humidified atmosphere of 5% CO2 in air.
(§5) To test IC50 of inhibition of individual compounds against each cell line, A375, A549 and Colo-205 cells were first plated in 96-well plates at densities of 2000-4000 cells/well. Cells were then incubated to allow cells to adhere and grow for 24 h. Cells were then treated with a series of concentrations of compounds for 72 h. The highest concentration of compounds was 20 μM. Cells were then removed from the incubator and medium was removed by inverting and tapping the plates. 100 μL of MTT (0.5 mg/ml) or 10 μL or MTS was added to each well followed by an incubated at 37° C. for 4 h. Then MTT was removed and 200 μL of DMSO was added to each well, followed by reading the ODs at 570 nm after a 5 second shaking cycle in a 96-well spectrophotometer. For MTS method, MTS was not removed, and the incubated solutions were directly put in a 96-well spectrophotometer for the reading of the ODs at 492 nm.
(§6) IC50 was calculated by plotting the concentration of compound vs the percentage of inhibition in treated wells using GraphPad Prism 5. […] The scale utilized in Table 3 is as follows: +++ less than 1 μM; ++ between 1 μM and 5 μM; and + greater than 5 μM.

[2] = system: A549 (adenocarcinomic human alveolar basal epithelial cell); experiment: Inhibition of cancer cell growth, MTT assay, A549; format: cell-based; conditions: 72 h treatment
Method: as §4, §5, §6

[3] = system: A375 (human melanoma cell, BRAF V600E Mutant); experiment: Inhibition of cancer cell growth, MTT assay, A375; format: cell-based; conditions: A-375, 72 h treatment
Method: as §4, §5, §6

BRAF = biological target: T2, BRAF (Homo sapiens, UniProt P15056); experiment: Z'-LYTE kinase inhibition assay, BRAF; format: biochemical; conditions: 1 μM compound; Z'-LYTE method
T2 construct: purchased Invitrogen
Method: as §1, §2, §3

T1 sequence (P15056 whole entry V600E): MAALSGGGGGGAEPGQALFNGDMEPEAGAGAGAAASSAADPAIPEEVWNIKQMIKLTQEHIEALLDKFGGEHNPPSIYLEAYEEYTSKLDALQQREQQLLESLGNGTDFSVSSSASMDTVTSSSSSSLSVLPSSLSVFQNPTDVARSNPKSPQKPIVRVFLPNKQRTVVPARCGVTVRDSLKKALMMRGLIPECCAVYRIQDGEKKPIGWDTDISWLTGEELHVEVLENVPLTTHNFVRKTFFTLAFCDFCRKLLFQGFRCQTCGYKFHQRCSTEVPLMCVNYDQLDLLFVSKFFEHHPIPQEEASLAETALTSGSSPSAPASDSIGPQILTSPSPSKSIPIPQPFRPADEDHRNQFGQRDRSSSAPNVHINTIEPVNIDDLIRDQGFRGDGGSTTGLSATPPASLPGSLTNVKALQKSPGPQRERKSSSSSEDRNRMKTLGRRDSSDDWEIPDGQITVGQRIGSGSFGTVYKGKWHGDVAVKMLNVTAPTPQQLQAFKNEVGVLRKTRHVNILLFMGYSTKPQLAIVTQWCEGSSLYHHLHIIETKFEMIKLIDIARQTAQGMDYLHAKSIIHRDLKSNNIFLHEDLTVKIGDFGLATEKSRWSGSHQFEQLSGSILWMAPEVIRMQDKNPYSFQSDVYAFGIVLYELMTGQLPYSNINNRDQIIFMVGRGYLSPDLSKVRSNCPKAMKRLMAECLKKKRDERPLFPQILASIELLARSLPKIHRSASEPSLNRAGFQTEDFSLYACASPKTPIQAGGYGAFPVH
T2 sequence (P15056 whole entry): as the sequence (P15056 whole entry V600E) above, with E600V counted along it

Row | inhibition at 1 µM (BRAF V600E) | IC50 [1] | IC50 [3] | inhibition at 1 µM (BRAF) | SMILES | IC50 [2]
1 | < 70% | > 5 µM | 1 to 5 µM | – | O=C(Nc1cc(F)cc(F)c1)Nc1cc(F)c(F)c(C(=O)c2ccc3ncccc3c2)c1F [Compound C005, 1-(3,5-difluorophenyl)-3-(2,4,5-trifluoro-3-(quinoline-6-carbonyl)phenyl)urea] | 1 to 5 µM
2 | < 70% | > 5 µM | > 5 µM | – | O=C(Nc1cc(F)c(F)c(C(=O)c2ccc3ncccc3c2)c1F)c1ccc(F)cc1 [Compound C007, 4-fluoro-N-(2,4,5-trifluoro-3-(quinoline-6-carbonyl)phenyl)benzamide] | > 5 µM
3 | < 70% | > 5 µM | > 5 µM | < 70% | O=C(Nc1ccc(F)cc1)Nc1cc(F)c(F)c(C(=O)c2ccc3ncccc3c2)c1F [Compound C003, 1-(4-fluorophenyl)-3-(2,4,5-trifluoro-3-(quinoline-6-carbonyl)phenyl)urea] | > 5 µM
4 | < 70% | > 5 µM | > 5 µM | – | O=C(Nc1cc(F)c(F)c(C(=O)c2ccc3ncccc3c2)c1F)c1ccc(F)c(F)c1 [Compound C009, 3,4-difluoro-N-(2,4,5-trifluoro-3-(quinoline-6-carbonyl)phenyl)benzamide] | > 5 µM
5 | > 89% | 1 to 5 µM | < 1 µM | 70 to 89% | CCCS(=O)(=O)Nc1cc(F)c(F)c(C(=O)c2ccc3ncccc3c2)c1F [Compound C001, N-(2,4,5-trifluoro-3-(quinoline-6-carbonyl)phenyl)propane-1-sulfonamide] | > 5 µM
6 | > 89% | < 1 µM | < 1 µM | > 89% | CCCS(=O)(=O)Nc1cc(F)c(F)c(C(=O)c2ccc3ncncc3c2)c1F [Compound C010, N-(2,4,5-trifluoro-3-(quinazoline-6-carbonyl)phenyl)propane-1-sulfonamide] | > 5 µM
7 | 70 to 89% | > 5 µM | > 5 µM | < 70% | O=C(Nc1cc(F)c(F)c(C(=O)c2ccc3ncccc3c2)c1F)c1cccc(F)c1 [Compound C006, 3-fluoro-N-(2,4,5-trifluoro-3-(quinoline-6-carbonyl)phenyl)benzamide] | > 5 µM
8 | < 70% | > 5 µM | > 5 µM | – | O=C(Nc1cccc(F)c1)Nc1cc(F)c(F)c(C(=O)c2ccc3ncccc3c2)c1F [Compound C002, 1-(3-fluorophenyl)-3-(2,4,5-trifluoro-3-(quinoline-6-carbonyl)phenyl)urea] | 1 to 5 µM
9 | < 70% | > 5 µM | > 5 µM | < 70% | O=C(Nc1cc(F)c(F)c(C(=O)c2ccc3ncccc3c2)c1F)c1cc(F)cc(F)c1 [Compound C008, 3,5-difluoro-N-(2,4,5-trifluoro-3-(quinoline-6-carbonyl)phenyl)benzamide] | > 5 µM
10 | < 70% | > 5 µM | > 5 µM | – | O=C(Nc1ccc(F)c(F)c1)Nc1cc(F)c(F)c(C(=O)c2ccc3ncccc3c2)c1F [Compound C004, 1-(3,4-difluorophenyl)-3-(2,4,5-trifluoro-3-(quinoline-6-carbonyl)phenyl)urea] | 1 to 5 µM
